Some test systems named below: ACHN; HCT-15; Hs-578T; IGROV-1; KM12; LOX IMVI; OVCAR-4; OVCAR-8; RPMI-8226; SK-MEL-28; SK-MEL-2; SK-OV-3; SN12C; SNB-19; SR; U-251; UACC-62; UO-31; HOP-92; NCI/ADR-RES.
What all share (assay): NCI-60 cell line screen, 48 h

This note sets out measurements from ChEMBL document CHEMBL1201862, “PubChem BioAssay data set” (2004).

Structures are written as SMILES.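 96-well plates; 48 h exposure; 5 concentrations. Endpoints by linear interpolation between flanking doses. Not reached: highest tested concentration assigned. Here, GI50 denotes the concentration required for 50% inhibition of growth.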 Activity calls are given as the source filed them. Cut-off read from the data, not from the text of the source: active = GI50 up to about 1.1 µM and inactive = higher.

Turning to `COc1ccc2c(c1)c(=O)c1c(NCCCN(C)CCCNc3ccc4c(=O)n(CCN(C)C)c(=O)n5c6ccc(OC)cc6c(=O)c3c45)ccc3c(=O)n(CCN(C)C)c(=O)n2c31`, the GI50 is < 0.01 µM (active) in the test with ACHN; less than 0.0258 µM with HCT-15; 0.105 µM (active) in the test with Hs-578T; < 0.01 µM (active) with IGROV-1; < 0.01 µM (active) in the test with KM12; < 0.01 µM (active) with LOX IMVI. Besides, the GI50 was < 0.01 µM (active) with OVCAR-4; < 0.01 µM (active) with OVCAR-8; < 0.01 µM (active) in the test on RPMI-8226; 0.415 µM (active) with SK-MEL-28; 0.514 µM (active) with SK-MEL-2; 0.217 µM (active) in the test with SK-OV-3. Also, the GI50 was < 0.01 µM (active) in the test with SN12C; < 0.01 µM (active) with SNB-19; < 0.01 µM (active) in the test with SR; < 0.01 µM (active) in the test on U-251; 0.305 µM (active) in the test on UACC-62; < 0.0181 µM (active) in the test with UO-31.
With `CCOP(=O)(CN1CCNCCN(CP(=O)(OCC)OCC)CC1)OCC`, the GI50 was > 100 µM (inactive) in the test on ACHN; more than 100 µM in the test on HCT-15; > 100 µM (inactive) with HOP-92; > 100 µM (inactive) in the test with Hs-578T; > 100 µM (inactive) in the test on IGROV-1; > 100 µM (inactive) with KM12. For the same compound, the GI50 in the test with LOX IMVI, in the test on NCI/ADR-RES, with OVCAR-4, with OVCAR-8, in the test on RPMI-8226 and with SK-MEL-28 was > 100 µM (inactive) throughout. Further, the GI50 in the test on SK-MEL-2, in the test on SK-OV-3, in the test with SN12C, with SNB-19, in the test on U-251 and in the test with UACC-62 was > 100 µM (inactive) each time. The GI50 with UO-31 was > 100 µM (inactive).
With `CO/N=C(/C(=O)N(C(=O)/C(=N/OC)c1csc(NC(c2ccccc2)(c2ccccc2)c2ccccc2)n1)n1cnn(CC(=O)OC(C)(C)C)c1=O)c1csc(NC(c2ccccc2)(c2ccccc2)c2ccccc2)n1`, the GI50 in the test on ACHN was > 10 µM (inactive); in the test with HCT-15, more than 10 µM; in the test with Hs-578T, > 10 µM (inactive); in the test with IGROV-1, > 10 µM (inactive); with KM12, > 10 µM (inactive); in the test on LOX IMVI, > 10 µM (inactive). The GI50 in the test on NCI/ADR-RES is > 10 µM (inactive); in the test with OVCAR-4 it was > 10 µM (inactive); with OVCAR-8, > 10 µM (inactive); in the test with RPMI-8226 it was > 10 µM (inactive); in the test with SK-MEL-28, > 10 µM (inactive); in the test on SK-MEL-2, 2.31 µM (inactive). Also, the GI50 was > 10 µM (inactive) in the test on SK-OV-3; > 10 µM (inactive) with SN12C; > 10 µM (inactive) in the test on SNB-19; > 10 µM (inactive) in the test with U-251; > 10 µM (inactive) in the test on UACC-62; 0.0139 µM (active) in the test on UO-31.
Turning to `CN(C)c1ccc(/C=C(\NC(=O)c2ccccc2)C(=O)NC(Cc2c[nH]c3ccccc23)C(=O)O)cc1` (stereo unspecified), the GI50 in the test with ACHN was > 100 µM (inactive); with HCT-15 it was more than 100 µM; in the test with HOP-92 it was > 100 µM (inactive); in the test with Hs-578T, > 100 µM (inactive); in the test on IGROV-1 it was > 100 µM (inactive); in the test with KM12, > 100 µM (inactive). Also, the GI50 in the test with LOX IMVI, in the test on NCI/ADR-RES, in the test with OVCAR-4, in the test with OVCAR-8, with RPMI-8226 and in the test with SK-MEL-28 was > 100 µM (inactive) in each case. Besides, the GI50 with SK-MEL-2, in the test with SK-OV-3, in the test with SN12C, in the test on SNB-19, in the test with U-251 and with UACC-62 was > 100 µM (inactive) throughout. Moreover, the GI50 with UO-31 is > 100 µM (inactive).
For the compound `CC(=O)Nc1c(C(=N)C#N)ncn1CCO`, the GI50 in the test on ACHN was > 100 µM (inactive); in the test on HCT-15 it was more than 100 µM; in the test on HOP-92, > 100 µM (inactive); with Hs-578T, > 100 µM (inactive); in the test with IGROV-1, > 100 µM (inactive); in the test with KM12 it was > 100 µM (inactive). For the same compound, the GI50 with LOX IMVI, in the test on NCI/ADR-RES, with OVCAR-4, with OVCAR-8, with RPMI-8226 and in the test with SK-MEL-28 was > 100 µM (inactive) in each case. Moreover, the GI50 in the test on SK-MEL-2, with SK-OV-3, in the test on SN12C, in the test with SNB-19, with U-251 and in the test on UACC-62 was > 100 µM (inactive) in each case.
With `Nc1ncnc2c1ncn2[C@@H]1C[C@@H]1CO`, the GI50 with ACHN is > 100 µM (inactive); in the test with HCT-15, more than 100 µM; with Hs-578T it was > 100 µM (inactive); in the test on KM12 it was > 100 µM (inactive); in the test with LOX IMVI it was > 100 µM (inactive); in the test on NCI/ADR-RES, > 100 µM (inactive). The GI50 in the test on OVCAR-8, in the test with RPMI-8226, in the test on SK-MEL-2, in the test with SN12C, with SNB-19 and in the test on SR was > 100 µM (inactive) throughout. For the same compound, the GI50 with U-251 and in the test with UO-31 was > 100 µM (inactive) in each case.
Turning to `S=C(Nc1ccc(Cl)cc1)c1ccc(CN2CCCCC2)s1`, the GI50 in the test with ACHN is 4.93 µM (inactive); in the test with HCT-15 it was 4.72 µM; in the test on Hs-578T, 37.9 µM (inactive); with IGROV-1, 2.86 µM (inactive); in the test on KM12 it was 5.43 µM (inactive); with LOX IMVI it was 2.48 µM (inactive). The GI50 with NCI/ADR-RES is 16.8 µM (inactive); in the test on OVCAR-4, 12.5 µM (inactive); in the test with OVCAR-8, 4.22 µM (inactive); in the test with RPMI-8226, 3.02 µM (inactive); in the test with SK-MEL-28 it was 4.24 µM (inactive); with SK-MEL-2 it was 25.1 µM (inactive). Moreover, the GI50 in the test on SN12C was 11.9 µM (inactive); in the test on SR it was 2.9 µM (inactive); in the test on U-251, 10.1 µM (inactive); with UACC-62, 5.22 µM (inactive); in the test with UO-31, 7.8 µM (inactive).
For `CC(CNC(N)=O)NC(N)=O` (stereo unspecified), the GI50 in the test with ACHN was > 100 µM (inactive); in the test on HCT-15, more than 100 µM; in the test with HOP-92, > 100 µM (inactive); in the test on Hs-578T, > 100 µM (inactive); in the test with IGROV-1, > 100 µM (inactive); in the test on KM12 it was > 100 µM (inactive). The GI50 in the test on LOX IMVI, with NCI/ADR-RES, with OVCAR-4, in the test with OVCAR-8, in the test on RPMI-8226 and in the test with SK-MEL-28 was > 100 µM (inactive) in each case. For the same compound, the GI50 in the test on SK-MEL-2, in the test with SK-OV-3, in the test on SN12C, with SNB-19, with U-251 and in the test on UACC-62 was > 100 µM (inactive) throughout. In addition, in the test with UO-31, the GI50 was > 100 µM (inactive).
Turning to `Cc1c(C(=O)Nc2ccccc2)nnn1-c1ccnc2cc(C(F)(F)F)ccc12`, the GI50 is 54.7 µM (inactive) in the test with ACHN; 45.3 µM with HCT-15; 24.9 µM (inactive) in the test with HOP-92; > 100 µM (inactive) in the test on Hs-578T; > 100 µM (inactive) in the test on IGROV-1; 50.8 µM (inactive) in the test with KM12. For the same compound, the GI50 with LOX IMVI was 28.6 µM (inactive); in the test on NCI/ADR-RES, 42.6 µM (inactive); with OVCAR-4, 34.5 µM (inactive); in the test with OVCAR-8, 76.9 µM (inactive); with SK-MEL-28, > 100 µM (inactive); in the test with SK-MEL-2, > 100 µM (inactive). Also, the GI50 with SK-OV-3 is > 100 µM (inactive); in the test on SN12C, 53.2 µM (inactive); in the test on SNB-19, 33.5 µM (inactive); with U-251, 68.4 µM (inactive); in the test on UACC-62 it was 71.9 µM (inactive); with UO-31 it was 30.4 µM (inactive).
As to `CCOC(=O)c1nnsc1NC(=O)Nc1ccc(Cc2ccc(NC(=O)Nc3snnc3C(=O)OCC)cc2)cc1`, the GI50 with ACHN is > 100 µM (inactive); in the test on HCT-15, more than 100 µM; in the test with Hs-578T it was 69.5 µM (inactive); in the test on IGROV-1, 28.2 µM (inactive); in the test with KM12, 55.1 µM (inactive); in the test on NCI/ADR-RES, > 100 µM (inactive). The GI50 with OVCAR-4 was 35.6 µM (inactive); in the test with OVCAR-8, 27.5 µM (inactive); in the test with RPMI-8226, > 100 µM (inactive); in the test on SK-MEL-28, > 100 µM (inactive); in the test on SK-MEL-2 it was > 100 µM (inactive); in the test on SK-OV-3, 21.8 µM (inactive). Also, the GI50 in the test with SN12C was 28.3 µM (inactive); in the test with SNB-19, 39.1 µM (inactive); in the test with U-251, 31.3 µM (inactive); in the test with UACC-62, 76 µM (inactive); in the test with UO-31, > 100 µM (inactive).
For `COC1(C)Cc2c(c(C)c(O)c3c2C(=O)C=C(Cl)C3=O)O1` (stereo unspecified), the GI50 in the test with ACHN was 25.4 µM (inactive); in the test on HCT-15 it was 45.8 µM; in the test with HOP-92, 18.9 µM (inactive); in the test on Hs-578T, 23.5 µM (inactive); in the test with IGROV-1, 55.5 µM (inactive); in the test on KM12, > 100 µM (inactive). The GI50 in the test with LOX IMVI was 44.8 µM (inactive); in the test on OVCAR-4 it was 41.3 µM (inactive); in the test on OVCAR-8, 40.2 µM (inactive); in the test with RPMI-8226 it was 14.7 µM (inactive); in the test on SK-MEL-28, 39.7 µM (inactive); in the test with SK-MEL-2, > 84.1 µM (inactive). Also, the GI50 in the test on SK-OV-3 was > 100 µM (inactive); with SN12C, > 65.6 µM (inactive); with SNB-19, > 100 µM (inactive); in the test with SR it was 3.89 µM (inactive); in the test on U-251 it was > 75.5 µM (inactive); in the test with UACC-62, 35.8 µM (inactive). Also, the GI50 with UO-31 was > 87.3 µM (inactive).
